In PubChem BioAssay (NCI):
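In this assay, cells in 96-well plates receive the compound at five concentrations for 48 hours. Endpoints are linearly interpolated between the surrounding concentrations. GI50 marks 50% less growth. Definition used: TGI = concentration required for complete inhibition of growth.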

Experiments:
Experiment in all cases: NCI-60 cell line screen, 48 h
SK-MEL-2 melanoma = system: SK-MEL-2 melanoma
KM12 colon = system: KM12 colon
RXF 393 renal = system: RXF 393 renal
CAKI-1 renal = system: CAKI-1 renal
HCC-2998 colon = system: HCC-2998 colon
MDA-MB-231 breast = system: MDA-MB-231 breast
A498 renal = system: A498 renal
HCT-116 colon = system: HCT-116 colon
NCI-H460 lung = system: NCI-H460 lung
SK-OV-3 ovarian = system: SK-OV-3 ovarian
UO-31 renal = system: UO-31 renal
NCI-H23 lung = system: NCI-H23 lung
A549 NSCLC = system: A549 NSCLC
SNB-19 CNS = system: SNB-19 CNS
SR leukemia = system: SR leukemia
U251 CNS = system: U251 CNS
SK-MEL-5 melanoma = system: SK-MEL-5 melanoma
SW-620 colon = system: SW-620 colon
MDA-MB-435 = system: MDA-MB-435
HT29 colon = system: HT29 colon
ACHN renal = system: ACHN renal
HCT-15 colon = system: HCT-15 colon
SN12C renal = system: SN12C renal
HL-60(TB) leukemia = system: HL-60(TB) leukemia
OVCAR-3 ovarian = system: OVCAR-3 ovarian
NCI-H522 lung = system: NCI-H522 lung
RPMI-8226 leukemia = system: RPMI-8226 leukemia

CC(=O)Oc1cc(C(C)C)c(OCCN(C)C)cc1C
GI50 (SK-MEL-2 melanoma): > 100 µM
TGI (SK-MEL-2 melanoma): > 100 µM
GI50 (KM12 colon): > 100 µM
TGI (KM12 colon): > 100 µM
GI50 (RXF 393 renal): > 100 µM
TGI (RXF 393 renal): > 100 µM
GI50 (CAKI-1 renal): > 100 µM
TGI (CAKI-1 renal): > 100 µM
GI50 (HCC-2998 colon): > 100 µM
TGI (HCC-2998 colon): > 100 µM
GI50 (MDA-MB-231 breast): > 100 µM
TGI (MDA-MB-231 breast): > 100 µM
GI50 (A498 renal): > 100 µM
TGI (A498 renal): > 100 µM
GI50 (HCT-116 colon): > 100 µM
TGI (HCT-116 colon): > 100 µM
GI50 (NCI-H460 lung): > 100 µM
TGI (NCI-H460 lung): > 100 µM
GI50 (SK-OV-3 ovarian): > 100 µM
TGI (SK-OV-3 ovarian): > 100 µM
GI50 (UO-31 renal): > 100 µM
TGI (UO-31 renal): > 100 µM
GI50 (NCI-H23 lung): > 100 µM
TGI (NCI-H23 lung): > 100 µM
GI50 (A549 NSCLC): > 100 µM
TGI (A549 NSCLC): > 100 µM
GI50 (SNB-19 CNS): > 100 µM
TGI (SNB-19 CNS): > 100 µM
GI50 (SR leukemia): > 100 µM
TGI (SR leukemia): > 100 µM
GI50 (U251 CNS): > 100 µM
TGI (U251 CNS): > 100 µM
GI50 (SK-MEL-5 melanoma): > 100 µM
TGI (SK-MEL-5 melanoma): > 100 µM
GI50 (SW-620 colon): > 100 µM
TGI (SW-620 colon): > 100 µM
GI50 (MDA-MB-435): > 100 µM
TGI (MDA-MB-435): > 100 µM
GI50 (HT29 colon): > 100 µM
TGI (HT29 colon): > 100 µM
GI50 (ACHN renal): > 100 µM
TGI (ACHN renal): > 100 µM
GI50 (HCT-15 colon): > 100 µM
TGI (HCT-15 colon): > 100 µM
GI50 (SN12C renal): > 100 µM
TGI (SN12C renal): > 100 µM
GI50 (HL-60(TB) leukemia): > 100 µM
TGI (HL-60(TB) leukemia): > 100 µM
GI50 (OVCAR-3 ovarian): > 100 µM
TGI (OVCAR-3 ovarian): > 100 µM
GI50 (NCI-H522 lung): > 100 µM
TGI (NCI-H522 lung): > 100 µM
GI50 (RPMI-8226 leukemia): > 100 µM
